Laboratory results published in patent publication US8586505B2 (SDS Biotech K. K., priority 2009, dated 2013).

Experiments:
[1] = tested on: Pseudoperonospora cubensis; assay: Test of examining control effect on Pseudoperonospora cubensis (potted cucumber plants); assay type: in vivo; details: 96 h, 10% wettable powder adjusted to 125 ppm, 15 ml/pot sprayed on potted cucumber plants one day before spray inoculation, assessed after 1 day wet chamber and 3 days greenhouse, read-out: Determination of control effect (preventive value) on Pseudoperonospora cubensis
Procedure, shortened: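 Preventive treatment: 125 ppm sample agent solution (from 10% wettable powder) sprayed at 15 ml/pot on 2.5-leaf Sagamihanjiro cucumbers, then P. cubensis inoculated next day at 1.0×10^4 cells/ml. Incubation was 1 day wet at 21° C plus 3 days greenhouse. Lesion area rate compared with untreated gives preventive value (≥60% high).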

Phytophthora infestans = assay: whole plant or invertebrate; assay type: in vivo; details: in Solanum lycopersicum, 96 h, read-out: Determination of control effect (preventive value)
Sphaerotheca fuliginea = assay: Test of examining control effect on Sphaerotheca fuliginea (potted cucumber plants); assay type: in vivo; details: Podosphaera fuliginea, 336 h; 10% wettable powder adjusted to 125 ppm, 15 ml/pot sprayed on potted cucumber plants one day before spray inoculation; assessed after 14 days in greenhouse; read-out: Determination of control effect (preventive value) on Sphaerotheca fuliginea
Procedure, shortened: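 Control effect rated high at preventive value 60–100% and low below 60%, from lesion area relative to untreated plants 14 days after spray inoculation with S. fuliginea (1.0×10^5 cells/ml). Compound applied at 125 ppm as wettable-powder spray one day before inoculation, on 2nd-leaf-stage Sagamihanjiro cucumber.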

SMILES	pest or weed control at 125 µg/mL [1] [%]	melting point [°C]	pest or weed control at 125 ppm (Phytophthora infestans) [%]	pest or weed control at 125 µg/mL (Sphaerotheca fuliginea) [%]
C(#Cc1cncs1)CCNc1ncnc2sccc12 [compound 61]	60 to 100	156 to 158	60 to 100	60 to 100
FC(F)(F)c1cc(C#CCCNc2ncnc3sccc23)cc(C(F)(F)F)c1 [compound 28]	0 to 60	163 to 166	0 to 60	0 to 60
Clc1ncnc(NCCC#Cc2ccccc2)c1Cl [compound 357]	60 to 100	122 to 123	60 to 100	0 to 60
C(#Cc1ccccc1)CC(Nc1ncnc2ccccc12)c1ccccc1 (centres unmarked) [compound 301, 4-[(1,4-diphenyl-3-butynyl)amino]quinazoline]	0 to 60	141 to 143	0 to 60	0 to 60
Fc1ccc(C#CCCNc2ncnc3ccccc23)cc1F [compound 166]	60 to 100	161 to 162	60 to 100	60 to 100
CS(=O)(=O)c1ccc(C#CCCNc2ncnc3ccccc23)cc1 [compound 120]	60 to 100	164 to 165	60 to 100	60 to 100
CC(C)[Si](C#CCCNc1ncnc2sccc12)(C(C)C)C(C)C [compound 4]	0 to 60	196 to 198	0 to 60	0 to 60
Clc1ncnc(NCCC#Cc2ccccc2)c1Cc1ccccc1 [compound 372]	0 to 60	157 to 158	0 to 60	0 to 60
FC(F)(F)c1ccccc1C#CCCNc1ncnc2cc(Cl)ccc12 [compound 308]	60 to 100	153 to 154	0 to 60	60 to 100
OCc1cccc(C#CCCNc2ncnc3ccccc23)c1 [compound 131]	60 to 100	113 to 115	60 to 100	60 to 100
C(#Cc1cscn1)CCNc1ncnc2sccc12 [compound 63]	60 to 100	174	60 to 100	60 to 100
C(#Cc1ccc(OC2CCCCO2)cc1)CCNc1ncnc2ccccc12 (centres unmarked) [compound 156]	60 to 100	163 to 165	60 to 100	60 to 100
COCc1cc(F)c(F)cc1C#CCCNc1ncnc2ccccc12 [compound 146]	60 to 100	121 to 125	60 to 100	60 to 100
Clc1ccc(Cl)c(C#CCCNc2ncnc3ccccc23)c1 [compound 173]	60 to 100	176 to 177	0 to 60	60 to 100
N#Cc1c(F)cccc1C#CCCNc1ncnc2ccccc12 [compound 165]	60 to 100	163 to 164	0 to 60	60 to 100
C(#Cc1ccccc1)CCNc1ncnc2ccccc12 [compound 96]	60 to 100	120 to 122	60 to 100	60 to 100
CC(CC#Cc1cscn1)Nc1ncnc2ccccc12 (centres unmarked) [compound 291]	60 to 100	142 to 145	0 to 60	60 to 100
CC(=O)OCc1nc(C#CCCNc2ncnc3sccc23)cs1 [compound 73]	60 to 100	128 to 129	60 to 100	60 to 100
Cc1scnc1C#CCCNc1ncnc2sccc12 [compound 65]	60 to 100	148 to 150	60 to 100	60 to 100
C=C(C#CCCNc1ncnc2ccccc12)CO [compound 92]	60 to 100	139	60 to 100	0 to 60
FC(F)(F)c1ccc(Oc2nc(C#CCCNc3ncnc4ccccc34)cs2)cc1 [compound 220]	0 to 60	137 to 139	0 to 60	60 to 100

SMILES	pest or weed control at 125 µg/mL [1] [%]	melting point [°C]	pest or weed control at 125 ppm (Phytophthora infestans) [%]	pest or weed control at 125 µg/mL (Sphaerotheca fuliginea) [%]
FC(F)(F)c1cccc(C#CCCNc2ncnc3sccc23)c1 [compound 26]	60 to 100	123 to 125	0 to 60	60 to 100
Fc1cc(Cl)ccc1C#CCCNc1ncnc2ccccc12 [compound 164]	60 to 100	198 to 199	60 to 100	60 to 100
COCc1ccccc1C#CCCNc1ncnc2c(Cl)cc(Cl)cc12 [compound 338]	60 to 100	161 to 162	0 to 60	0 to 60
Clc1ncccc1C#CCCNc1ncnc2ccccc12 [compound 195]	60 to 100	168 to 170	60 to 100	60 to 100
OC(c1ccccc1C#CCCNc1ncnc2ccccc12)C(F)(F)F (centres unmarked) [compound 138]	0 to 60	183 to 187	0 to 60	0 to 60
FC(F)(F)c1ccc(C#CCCNc2ncnc3ccccc23)cn1 [compound 198]	60 to 100	134 to 139	0 to 60	60 to 100
Clc1ccc(C#CCCNc2ncnc3ccccc23)cc1Cl [compound 175]	60 to 100	147 to 148	0 to 60	60 to 100
C(#Cc1ccccc1)CCNc1ncnc2[nH]cnc12 [compound 378]	0 to 60	207 to 208	0 to 60	0 to 60
C(#Cc1csc(-c2cccnc2)n1)CCNc1ncnc2sccc12 [compound 81]	60 to 100	175 to 177	0 to 60	0 to 60
Fc1cncc(C#CCCNc2ncnc3ccccc23)c1 [compound 193]	60 to 100	145 to 150	60 to 100	60 to 100
FC(F)(F)c1ccccc1C#CCC(Nc1ncnc2ccccc12)c1ccccc1 (centres unmarked) [compound 302]	0 to 60	150 to 152	0 to 60	0 to 60
Cc1nc(C#CCCNc2ncnc3sccc23)cs1 [compound 66]	60 to 100	160 to 161	0 to 60	0 to 60
Clc1cccc(Cl)c1C#CCCNc1ncnc2ccccc12 [compound 174]	60 to 100	153 to 155	60 to 100	60 to 100
OCc1ccc(C#CCCNc2ncnc3ccccc23)cn1 [compound 202]	60 to 100	183 to 185	0 to 60	0 to 60
Cc1cc(C)nc(C#CCCNc2ncnc3sccc23)n1 [compound 59]	0 to 60	112 to 113	0 to 60	0 to 60
C(#Cc1csc(-c2ccccc2)n1)CCNc1ncnc2sccc12 [compound 76, 4-[4-(2-Phenylthiazol-4-yl)-3-butynylamino]thieno[2,3-d]pyrimidine]	60 to 100	134 to 136	0 to 60	60 to 100
C(#Cc1ccncc1)CCNc1ncnc2sccc12 [compound 57]	0 to 60	140 to 141	0 to 60	0 to 60
N#Cc1cccc(Oc2nc(C#CCCNc3ncnc4ccccc34)cs2)c1 [compound 222]	60 to 100	137 to 139	0 to 60	60 to 100
FC(F)(F)c1ccccc1Oc1nc(C#CCCNc2ncnc3ccccc23)cs1 [compound 218]	60 to 100	159 to 161	0 to 60	0 to 60
COc1ccc(Oc2nc(C#CCCNc3ncnc4ccccc34)cs2)cc1 [compound 217]	60 to 100	150 to 152	0 to 60	60 to 100
